# Assay results from patent publication US8940291B2 (priority 2009, dated 2015).
# Tested on: VSVΔ51-resistant CT26 colon carcinoma tumors
# Design: species or system Balb/c mice
# Details: mouse, in vivo, ip
compound,measurement,value
"O=C1OC(c2ccccc2)C(Cl)=C1Cl (centres unmarked) [VSe1, 3,4-dichloro-5-phenyl-2,5-dihydrofuran-2-one]","tumor growth, compound alone",neither VSe1 nor VSVΔ51 alone had a significant effect on tumor growth
same,"tumor progression, combination with VSVΔ51",significant delay in tumor progression
